Measurements as given in PubChem BioAssay (NCI).
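The compound was tested at five concentrations on cells cultured in 96-well plates, with a 48-hour exposure period. GI50 is the concentration that inhibits growth by half. At the TGI there is no net growth.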

Columns and labels:
Assay in all cases: NCI tumour cell line growth inhibition, 48 h
SK-OV-3 ovarian = system: SK-OV-3 ovarian
HL-60(TB) leukemia = system: HL-60(TB) leukemia
MDA-MB-231 breast = system: MDA-MB-231 breast
HCT-116 colon = system: HCT-116 colon
NCI/ADR-RES ovarian = system: NCI/ADR-RES ovarian
TK-10 renal = system: TK-10 renal
HCT-15 colon = system: HCT-15 colon
HS 578T breast = system: HS 578T breast
SF-295 CNS = system: SF-295 CNS
MOLT-4 leukemia = system: MOLT-4 leukemia

## CCCC(=O)Nc1cc2c3c(c1)CCCN3CCC2
SK-OV-3 ovarian
  TGI: > 10 µM
HL-60(TB) leukemia
  TGI: > 10 µM
MDA-MB-231 breast
  TGI: > 10 µM
HCT-116 colon
  TGI: > 10 µM
NCI/ADR-RES ovarian
  TGI: > 10 µM
TK-10 renal
  TGI: > 10 µM
HCT-15 colon
  TGI: > 10 µM
HS 578T breast
  TGI: > 10 µM
SF-295 CNS
  TGI: > 10 µM

## CCCc1nc(NC#N)nc(C(=O)Nc2ccccc2)c1CC
HL-60(TB) leukemia
  TGI: > 100 µM
HCT-116 colon
  TGI: > 100 µM
TK-10 renal
  TGI: > 100 µM
HCT-15 colon
  TGI: > 100 µM
MOLT-4 leukemia
  TGI: > 100 µM
SF-295 CNS
  TGI: > 100 µM

## CN(C)CC1CCCC/C1=N/OC(=O)c1ccc(Cl)cc1 (stereo not given)
SK-OV-3 ovarian
  TGI: > 100 µM
HL-60(TB) leukemia
  TGI: > 100 µM
HCT-116 colon
  TGI: > 100 µM
TK-10 renal
  TGI: > 100 µM
HCT-15 colon
  TGI: > 100 µM
MOLT-4 leukemia
  TGI: > 100 µM
SF-295 CNS
  TGI: > 100 µM

## COC(=O)C(Cc1nc2ccc(Cl)cc2[nH]c1=O)/C(=N\N)C(=O)Nc1cc(C)c(Cl)cc1S(=O)(=O)O (stereo not given)
SK-OV-3 ovarian
  TGI: > 100 µM
HCT-116 colon
  TGI: > 100 µM
HCT-15 colon
  TGI: > 100 µM
MOLT-4 leukemia
  TGI: > 100 µM
SF-295 CNS
  TGI: > 100 µM

## CC12CP(=O)(c3ccccc3)CC1C2(Cl)Cl (stereo not given)
SK-OV-3 ovarian
  TGI: > 100 µM
HCT-116 colon
  TGI: > 100 µM
TK-10 renal
  TGI: > 100 µM
MOLT-4 leukemia
  TGI: > 100 µM
SF-295 CNS
  TGI: > 100 µM

## CN1CCOC(c2ccccc2)O1 (stereo not given)
SK-OV-3 ovarian
  TGI: > 100 µM
HL-60(TB) leukemia
  TGI: > 100 µM
HCT-116 colon
  TGI: > 100 µM
TK-10 renal
  TGI: > 100 µM
HCT-15 colon
  TGI: > 100 µM
MOLT-4 leukemia
  TGI: > 100 µM
SF-295 CNS
  TGI: > 100 µM

## N#Cc1c2ccccc2cn1-c1ccc(F)cc1
HL-60(TB) leukemia
  TGI: 24.2 µM
HCT-116 colon
  TGI: 62.3 µM
TK-10 renal
  TGI: > 100 µM
MOLT-4 leukemia
  TGI: 90.5 µM
SF-295 CNS
  TGI: > 100 µM

## Cc1cc(N(CCC#N)CCC#N)ccc1N=Nc1ccc(C(=O)O)cc1
SK-OV-3 ovarian
  TGI: > 100 µM
TK-10 renal
  TGI: > 100 µM
HCT-15 colon
  TGI: > 100 µM
MOLT-4 leukemia
  TGI: > 100 µM
SF-295 CNS
  TGI: > 100 µM

## Cc1ccccc1N1C(=O)C2C=CC(n3[nH]c(=O)n(Cc4ccccc4)c3=O)CC2C1=O (stereo not given)
SK-OV-3 ovarian
  TGI: > 100 µM
HL-60(TB) leukemia
  TGI: > 100 µM
HCT-116 colon
  TGI: > 100 µM
TK-10 renal
  TGI: > 100 µM
HCT-15 colon
  TGI: > 100 µM
MOLT-4 leukemia
  TGI: > 100 µM
SF-295 CNS
  TGI: > 100 µM

## CCCNC(=S)NNC(=O)CSc1nc(-c2ccccc2)c(-c2ccccc2)[nH]1
SK-OV-3 ovarian
  TGI: > 100 µM
HL-60(TB) leukemia
  TGI: > 100 µM
HCT-116 colon
  TGI: > 100 µM
TK-10 renal
  TGI: > 100 µM
HCT-15 colon
  TGI: > 100 µM
MOLT-4 leukemia
  TGI: 61.7 µM
SF-295 CNS
  TGI: > 100 µM

## O=C(CCc1n[nH]c(=S)o1)Nc1ccccc1C(F)(F)F
SK-OV-3 ovarian
  TGI: > 100 µM
HL-60(TB) leukemia
  TGI: > 100 µM
TK-10 renal
  TGI: > 100 µM
HCT-15 colon
  TGI: 38.8 µM
MOLT-4 leukemia
  TGI: > 100 µM
SF-295 CNS
  TGI: > 100 µM

## C1=CC(N(c2ccccc2)C2C=CCCC2)CCC1 (stereo not given)
SK-OV-3 ovarian
  TGI: > 100 µM
HL-60(TB) leukemia
  TGI: > 100 µM
HCT-116 colon
  TGI: > 100 µM
TK-10 renal
  TGI: > 100 µM
HCT-15 colon
  TGI: > 100 µM
SF-295 CNS
  TGI: > 100 µM

## O=C1/C(=C/c2cccc(Cl)c2Cl)N=C(c2ccccc2)N1C1CC1
HL-60(TB) leukemia
  GI50: 15.6 µM
  TGI: 41.4 µM
MDA-MB-231 breast
  GI50: 8.05 µM
  TGI: 18.3 µM
HCT-116 colon
  GI50: 8.98 µM
  TGI: 18.9 µM
NCI/ADR-RES ovarian
  GI50: 11.8 µM
  TGI: 31.1 µM
TK-10 renal
  GI50: 10.7 µM
  TGI: 27.7 µM
HCT-15 colon
  GI50: 12.3 µM
  TGI: 39 µM
MOLT-4 leukemia
  GI50: 19.2 µM
  TGI: > 50 µM
HS 578T breast
  GI50: 16.6 µM
  TGI: 39.5 µM
SF-295 CNS
  GI50: 12.7 µM
  TGI: 31.3 µM

## CCOc1ccc(NC(=O)CC#N)cc1
SK-OV-3 ovarian
  TGI: > 100 µM
HL-60(TB) leukemia
  TGI: > 100 µM
HCT-116 colon
  TGI: > 100 µM
TK-10 renal
  TGI: > 100 µM
MOLT-4 leukemia
  TGI: > 100 µM
SF-295 CNS
  TGI: > 100 µM

## O=C(Nc1ccncc1)C(=O)c1cn(S(=O)(=O)c2ccc(F)cc2)c2ccccc12
SK-OV-3 ovarian
  GI50: 22.3 µM
  TGI: 85.9 µM
MDA-MB-231 breast
  GI50: 5.97 µM
  TGI: > 100 µM
HCT-116 colon
  GI50: 0.781 µM
  TGI: 34.1 µM
NCI/ADR-RES ovarian
  GI50: 1.76 µM
  TGI: > 100 µM
TK-10 renal
  GI50: 19.2 µM
  TGI: 72.4 µM
HCT-15 colon
  GI50: 1.41 µM
  TGI: > 100 µM
MOLT-4 leukemia
  GI50: 5.22 µM
  TGI: > 100 µM
HS 578T breast
  GI50: 3.65 µM
  TGI: 82.1 µM
SF-295 CNS
  GI50: 3.01 µM
  TGI: 38.1 µM

## O=C(c1ccccc1)c1cc2ccccc2o1
SK-OV-3 ovarian
  GI50: > 100 µM
  TGI: > 100 µM
MDA-MB-231 breast
  GI50: 91.9 µM
  TGI: > 100 µM
HCT-116 colon
  GI50: 62.7 µM
  TGI: > 100 µM
NCI/ADR-RES ovarian
  GI50: 77.4 µM
  TGI: > 100 µM
TK-10 renal
  GI50: > 100 µM
  TGI: > 100 µM
HCT-15 colon
  GI50: > 100 µM
  TGI: > 100 µM
HS 578T breast
  GI50: 37.5 µM
  TGI: > 100 µM
SF-295 CNS
  GI50: 71.7 µM
  TGI: > 100 µM

## CCN1CCC(O)(c2ccc(OC)cc2)C(C(=O)c2ccc(OC)cc2)C1 (stereo not given)
SK-OV-3 ovarian
  TGI: > 100 µM
HL-60(TB) leukemia
  TGI: 46.9 µM
HCT-116 colon
  TGI: 52.4 µM
TK-10 renal
  TGI: 10.4 µM
HCT-15 colon
  TGI: 43.1 µM
MOLT-4 leukemia
  TGI: > 100 µM
SF-295 CNS
  TGI: > 100 µM

## CN(C)CC[PH+](c1ccccc1)c1ccccc1.CN(C)CC[PH+](c1ccccc1)c1ccccc1.[Cl-].[Pd+2]
SK-OV-3 ovarian
  GI50: > 100 µM
  TGI: > 100 µM
HL-60(TB) leukemia
  GI50: > 100 µM
  TGI: > 100 µM
MDA-MB-231 breast
  GI50: > 100 µM
  TGI: > 100 µM
HCT-116 colon
  GI50: > 100 µM
  TGI: > 100 µM
NCI/ADR-RES ovarian
  GI50: > 100 µM
  TGI: > 100 µM
TK-10 renal
  GI50: > 100 µM
  TGI: > 100 µM
HCT-15 colon
  GI50: > 100 µM
  TGI: > 100 µM
HS 578T breast
  GI50: > 100 µM
  TGI: > 100 µM
SF-295 CNS
  GI50: > 100 µM
  TGI: > 100 µM

## NC(=O)C12CC3CC(CC(F)(C3)C1)C2
SK-OV-3 ovarian
  TGI: > 100 µM
HL-60(TB) leukemia
  TGI: > 100 µM
HCT-116 colon
  TGI: > 100 µM
TK-10 renal
  TGI: > 100 µM
MOLT-4 leukemia
  TGI: > 100 µM

## S=c1sc2c(Cl)nc(Cl)nc2n1-c1ccccc1
SK-OV-3 ovarian
  TGI: > 100 µM
HL-60(TB) leukemia
  TGI: 82.6 µM
HCT-116 colon
  TGI: 31.1 µM
TK-10 renal
  TGI: > 100 µM
HCT-15 colon
  TGI: 32 µM
MOLT-4 leukemia
  TGI: > 100 µM
SF-295 CNS
  TGI: > 100 µM

## Cc1ccc(/C=C/C(=O)c2sc(-c3nc(C)c(C(=O)/C=C/c4ccc(C)cc4)s3)nc2C)cc1
SK-OV-3 ovarian
  TGI: > 100 µM
HL-60(TB) leukemia
  TGI: > 100 µM
TK-10 renal
  TGI: > 100 µM
HCT-15 colon
  TGI: > 100 µM
MOLT-4 leukemia
  TGI: > 100 µM
SF-295 CNS
  TGI: > 100 µM

## CCOc1ccccc1NC(=O)C(=O)CC(=O)c1sc(Nc2nnc(-c3ccc(Cl)c(Cl)c3)o2)nc1C
SK-OV-3 ovarian
  TGI: > 100 µM
HL-60(TB) leukemia
  TGI: > 100 µM
HCT-116 colon
  TGI: > 100 µM
TK-10 renal
  TGI: > 100 µM
HCT-15 colon
  TGI: > 100 µM
MOLT-4 leukemia
  TGI: > 100 µM
SF-295 CNS
  TGI: > 100 µM

## COc1ccc2[nH]cc(C3(c4c[nH]c5ccc(OC)cc45)C(=O)Nc4ccc(F)cc43)c2c1
SK-OV-3 ovarian
  GI50: 3.59 µM
  TGI: 13.5 µM
MDA-MB-231 breast
  GI50: 1.57 µM
  TGI: 3.56 µM
HCT-116 colon
  GI50: 1.76 µM
  TGI: 3.16 µM
NCI/ADR-RES ovarian
  GI50: 5.76 µM
  TGI: 31.1 µM
HCT-15 colon
  GI50: 4.12 µM
  TGI: 20.2 µM
MOLT-4 leukemia
  GI50: 1.97 µM
  TGI: 6.08 µM
HS 578T breast
  GI50: 3.13 µM
  TGI: 14.8 µM
SF-295 CNS
  GI50: 1.79 µM
  TGI: 4.85 µM

## COc1cccc(C2=NC(C(C)C)CO2)c1 (stereo not given)
SK-OV-3 ovarian
  TGI: > 100 µM
HL-60(TB) leukemia
  TGI: > 100 µM
TK-10 renal
  TGI: > 100 µM
HCT-15 colon
  TGI: > 100 µM
MOLT-4 leukemia
  TGI: > 100 µM
SF-295 CNS
  TGI: > 100 µM
